Laboratory results taken from paper PMC7571187, “Novel Acetylcholinesterase Inhibitors Based on Uracil Moiety for Possible Treatment of Alzheimer Disease” (Molecules, 2020).

What was measured:
[1] = target: T1, hBChE (BChE from human plasma; serum hBChE) (Homo sapiens, UniProt P06276); test: Ellman assay, […] nm; assay type: biochemical
T1 construct: native, commercial from human plasma / serum (Sigma-Aldrich)

[2] = target: T2, hAChE (recombinant human AChE; AChE from human erythrocytes in Table 1) (Homo sapiens, UniProt P22303); test: Ellman assay, […] nm; assay type: biochemical
T2 construct: commercial recombinant human AChE (Sigma-Aldrich) per methods
T2 sequence (P22303 32-614): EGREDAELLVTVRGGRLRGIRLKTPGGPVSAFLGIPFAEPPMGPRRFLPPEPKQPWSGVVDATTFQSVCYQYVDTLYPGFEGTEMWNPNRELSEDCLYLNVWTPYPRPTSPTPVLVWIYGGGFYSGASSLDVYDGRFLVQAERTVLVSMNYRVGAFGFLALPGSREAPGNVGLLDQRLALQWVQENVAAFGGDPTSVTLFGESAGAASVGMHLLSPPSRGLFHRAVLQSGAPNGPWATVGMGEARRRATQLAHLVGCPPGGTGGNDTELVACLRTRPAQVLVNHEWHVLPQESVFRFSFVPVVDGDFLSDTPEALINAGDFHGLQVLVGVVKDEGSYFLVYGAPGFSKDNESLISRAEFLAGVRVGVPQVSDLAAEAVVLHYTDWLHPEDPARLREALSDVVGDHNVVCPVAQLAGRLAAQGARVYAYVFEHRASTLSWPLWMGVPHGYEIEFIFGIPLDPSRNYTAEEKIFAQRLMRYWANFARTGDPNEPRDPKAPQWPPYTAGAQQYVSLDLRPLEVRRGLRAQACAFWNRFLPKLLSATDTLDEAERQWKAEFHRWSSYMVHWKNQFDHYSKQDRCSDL

T1 sequence (P06276 29-602): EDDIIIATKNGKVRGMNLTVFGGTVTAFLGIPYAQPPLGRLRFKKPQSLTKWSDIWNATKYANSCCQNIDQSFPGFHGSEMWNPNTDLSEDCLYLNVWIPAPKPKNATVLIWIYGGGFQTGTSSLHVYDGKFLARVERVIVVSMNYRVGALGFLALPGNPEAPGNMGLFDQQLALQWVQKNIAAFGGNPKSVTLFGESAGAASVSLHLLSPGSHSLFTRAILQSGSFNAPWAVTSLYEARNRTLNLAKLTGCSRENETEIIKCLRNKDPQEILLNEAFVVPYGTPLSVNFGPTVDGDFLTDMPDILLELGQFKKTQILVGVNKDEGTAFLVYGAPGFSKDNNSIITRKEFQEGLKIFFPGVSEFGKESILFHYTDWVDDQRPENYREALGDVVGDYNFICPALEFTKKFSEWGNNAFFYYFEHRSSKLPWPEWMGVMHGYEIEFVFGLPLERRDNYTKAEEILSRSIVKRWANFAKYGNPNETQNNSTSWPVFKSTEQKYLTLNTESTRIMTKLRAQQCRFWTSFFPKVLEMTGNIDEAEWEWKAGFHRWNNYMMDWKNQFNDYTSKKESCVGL

Row | SMILES | IC50 [1] | IC50 [2]
1 | CCN(CCCCn1c(C)cc(=O)n(CCCCN(CC)Cc2ccccc2C#N)c1=O)Cc1ccccc1C#N [2a, 1,3-bis[4-(o-Nitrilebenzylethylamino)butyl]-6-methyluracil] | 65000 nM | 7 ± 0.5 nM
2 | CCN(CCCCn1c(=O)c2ccccc2n(CCCCN(CC)Cc2ccccc2C#N)c1=O)Cc1ccccc1C#N [4a, 1,3-bis[4-(o-Nitrilebenzylethylamino)butyl]-quinazoline-2,4-dione] | 2620 ± 200 nM | 5520 ± 400 nM
3 | Cc1cc(=O)n(CCCCCNCc2ccccc2C#N)c(=O)n1CCCCCNCc1ccccc1C#N [compound 3, 1,3-bis[5-(o-Nitrilebenzylamino)pentyl]-6-methyluracil] | 1800 ± 170 nM | 480 ± 30 nM
4 | Cc1cc(=O)n(CCCCCN=Cc2ccccc2C#N)c(=O)n1CCCCCN=Cc1ccccc1C#N [compound 13, 1,3-bis[5-(o-Nitrilebenzyl)aldiminopentyl]-6-methyluracil] | 2160 ± 150 nM | 2320 ± 170 nM
